Data as given in US20080090849A1, “NOVEL PURINE DERIVATIVES, PREPARATION METHOD AND USE AS MEDICINES” (AVENTIS PHARMA S.A., priority 2000, published 2008).
Values after ≈ are worked out from the molar mass of the structure shown. Where a name gives a salt, the structure may show the parent alone. Read-outs that look alike come from different tables or passages of the source.

Columns and labels:
[1] = test system: fungus; test: Minimum inhibitory concentration (MIC), NCCLS M27-A broth dilution antifungal susceptibility test; format: cell-based; settings: RPMI 1640 medium, 37° C., visual reading, inhibition of at least 80% of growth; test strain not named
Text: A constant number of cells of a given strain are exposed to increasing concentrations of an antifungal, under conditions taken from NCCLS (National Committee for Clinical Laboratory Standards, 1997 [reference method for broth dilution antifungal susceptibility testing of yeasts]. Approved Standard M27-A. NCCLS, Villanova, Pa.); the minimum concentration with which a visible reduction in the cloudiness from cell growth was observed (at least 80% relative to a control with no product) is the minimum inhibitory concentration (MIC) of the antifungal for the test strain.
Supplement the L-glutamine-free RPMI 1640 medium (liquid) with L-glutamine (0.3 g/l or 10.5 ml of a solution at 200 mM) and buffer with 34.54 g/l (0.165 M) of M morpholinepropanesulfonic acid (MOPS). Sterilize the medium by filtration. Distribute 100 μl of RPMI medium into each well of a 96-well microplate. Distribute the appropriate volume of the antifungal solution in the first column of the microplate and adjust with medium to 200 μl. Carry out a 2-fold serial dilution in order to establish a range of 11 concentrations in each lane of the microplate. The 12th well of each row will serve as a control for growth. Prepare the cellular suspension from a (liquid or agar) culture or from a frozen vial, dilute it in RPMI medium in order to obtain a cellular suspension at 5×10^3-2×10^4 cells/ml. Distribute 100 μl of the cellular suspension into the microplate. The MIC for all the Candida species was read after 24-48 h, for Cryptococcus and Aspergillus after 48-72 h of incubation at 37° C. in a normal atmosphere. The MIC is read by visual readings by determining the well which contains the lowest dose of antifungal which causes an inhibition of at least 80% of the growth of the fungus.

[2] = target: CaCiv1 (Candida albicans, UniProt A0A1D8PH53); test: Test of inhibition of the activity of CIV-CDK (CIV1); format: biochemical
Description: (Details of the Excipient: Lactose, Talc, Starch, Magnesium Stearate.) Pharmacological Part: 1) Test of Inhibition of the Activity of CIV-CDK (CIV1) a) PREPARATION of the Reagents […]
967 μl Buffer [50 mM Tris-HCl−0.1 M NaCl−pH 7.5]
−0.1% BSA+30 μl Cdk2 (1 mg/ml)
(2)-3× Inhibitor Cocktail
Prepare a 3× range of inhibitor in 3% of DMSO-Buffer
[50 mM Tris-HCl−0.1 M NaCl−pH 7.5]−0.1% BSA
ATP−pH 7.5+1 tablet of protease inhibitors (Complete EDTA Free™) per 5 ml of Buffer b) Carrying Out of the Test
1)—mix 30 μl of the 3× enzyme cocktail (1) with 30 μl of the 3× inhibitor cocktail (2) 2)—add 30 μl of the 3×ATP cocktail (3) (start of the reaction)
3)—incubate for 30 min at room temperature (20 to 25° C.)
4)—stop the reaction by adding 250 μl of Buffer [50 mM Tris-HCl−0.1 M NaCl−pH 7.5]−0.1% BSA−25 mM EDTA 5)—distribute 100 μl into a plate coated with antibodies directed against the reaction substrate 6)—incubate for 60 min at room temperature, stirring gently and then wash 3 times with 300 μl Buffer [50 mM Tris-HCl−0.1 M NaCl−pH 7.5]−0.05% Tween20
9)—Place the plate to dry for 30 min at 37° C.
10)—Place for counting in a scintillation counter c) Results Obtained, Expressed as IC50 Expressed in Micromolar

[3] = CaCiv1 with Cdk2, [33P]ATP, 30 min at room temperature, scintillation counting, read-out: IC50

Sequence of CaCiv1 (A0A1D8PH53 entry or part of it): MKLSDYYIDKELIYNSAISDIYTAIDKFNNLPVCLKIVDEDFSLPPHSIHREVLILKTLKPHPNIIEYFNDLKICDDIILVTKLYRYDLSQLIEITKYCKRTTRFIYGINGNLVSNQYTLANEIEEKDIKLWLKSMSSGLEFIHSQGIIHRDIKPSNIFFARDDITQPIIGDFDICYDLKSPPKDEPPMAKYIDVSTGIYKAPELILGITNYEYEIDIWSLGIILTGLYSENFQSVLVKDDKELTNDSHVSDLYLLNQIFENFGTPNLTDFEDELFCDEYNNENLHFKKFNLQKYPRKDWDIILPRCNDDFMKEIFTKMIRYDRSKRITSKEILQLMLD

Compound | MIC [1] | IC50 [2, 3] | IC50 [2]
N[C@H]1CC[C@H](Nc2nc(Nc3ccc(Cl)cc3)c3nc[nH]c3n2)CC1 [Example 15, Trans-N2-(4-aminocyclohexyl)-N6-(4-chlorophenyl)-9H-purine-2,6-diamine] | 100 µg/mL (≈ 279 µM) |  | 
CCN(CC)CCOC(=O)c1ccc(Nc2nc(N[C@H]3CC[C@H](N)CC3)nc3[nH]cnc23)cc1 [Example 18, 2-(diethylamino)ethyl trans-4-[[2-[(4-aminocyclohexyl)amino]-9H-purin-6-yl]amino]benzoate] |  | 4300 nM | 
N[C@H]1CC[C@H](Nc2nc(Nc3ccc(C(=O)Nc4ccccc4)cc3)c3nc[nH]c3n2)CC1 [Example 19, Trans-4-[[2-[(4-aminocyclohexyl)amino]-9H-purin-6-yl]amino]-N-phenylbenzamide] |  | 3800 nM | 
CCCCOC(=O)c1ccc(Nc2nc(N[C@H]3CC[C@H](N)CC3)nc3[nH]cnc23)cc1 [Example 17, Butyl trans-4-[[2-[(4-aminocyclohexyl)amino]-9H-purin-6-yl]amino]benzoate] | 12.5 µg/mL (≈ 29.5 µM) | 5600 nM | 
N[C@H]1CC[C@H](Nc2nc(Nc3ccc(Cl)c(Cl)c3)c3nc[nH]c3n2)CC1 [Example 16, trans-N2-(4-aminocyclohexyl)-N6-(3,4-dichlorophenyl)-9H-purine-2,6-diamine] | 25 µg/mL (≈ 63.7 µM) | 2900 nM | 
CCOC(=O)c1cccc(Nc2nc(N[C@H]3CC[C@H](N)CC3)nc3[nH]cnc23)c1 [Example 14, Ethyl trans-3-[[2-[(4-aminocyclohexyl)amino]-9H-purin-6-yl]amino]benzoate] |  | 2000 nM | 
CCOC(=O)c1ccc(Nc2[nH]c(N[C@H]3CC[C@H](N)CC3)nc3ncnc2-3)cc1 [Example 1, Ethyl trans-4-[[2-[(4-aminocyclohexyl)amino]-1H-purin-6-yl]amino]benzoate dihydrochloride] |  |  | 500 nM
N[C@H]1CC[C@H](Nc2nc(Nc3ccccc3)c3nc[nH]c3n2)CC1 [Example 11, Trans-N2-(4-aminocyclohexyl)-N6-[4-phenyl]-1H-purine-2,6-diamine dihydrochloride] |  | 2500 nM | 
